Data taken from patent US12290520B2, “Methods of use of emulsion formulations of aprepitant” (Heron Therapeutics, Inc., priority 2014, dated 2025).

Test: Pharmacokinetics of aprepitant emulsion vs fosaprepitant solution, intravenous
Format: in vivo, male Sprague-Dawley rats
Details: rat, equivalent to 14 mg/kg aprepitant
Protocol: The pharmacokinetics of an aprepitant emulsion prepared according to Example 1 was determined. Two groups of six male Sprague-Dawley rats each were injected intravenously with, respectively, fosaprepitant in solution or aprepitant emulsion prepared according to Example 1. All drugs were administered at an effective concentration equivalent to 14 mg/kg aprepitant. Blood from all rats was collected at the appropriate time intervals and processed to plasma by centrifugation. Plasma samples were analyzed by LC-MS/MS for aprepitant and fosaprepitant, as appropriate. A plasma concentration versus time curve of aprepitant for the emulsion described in Example 1 and for fosaprepitant is presented in FIG. 2 (fosaprepitant in solution, ●; aprepitant emulsion, ▴). The curves indicate the initial aprepitant level reached immediately after injection of the aprepitant emulsion was almost 3 times higher than the initial aprepitant level reached immediately after injection of the fosaprepitant solution.

For `C[C@@H](O[C@H]1OCCN(Cc2nc(O)n(P(=O)(O)O)n2)[C@H]1c1ccc(F)cc1)c1cc(C(F)(F)F)cc(C(F)(F)F)c1` [fosaprepitant], the “Plasma levels of aprepitant by the 3-hour time point, emulsion vs fosaprepitant solution” value was “essentially the same”.
